Assay results published in patent US11485987B2, “Methods for inducing bioorthogonal reactivity” (University of Delaware, priority 2015, dated 2022).

Experiment: FeCl2 catalyzed oxidation of a dihydrotetrazine in the presence of H2O2
Conditions: DHTz 100 μM, 1 mM H2O2, FeCl2 0.05 mM, deionized water
Procedure: N′-Boc PEG10 dipyridyl-dihydrotetrazine was dissolved in deionized water containing 1 mM H2O2 to give a final DHTz concentration of 100 μM. The UV absorbance at 330 nm wavelength was monitored over 10 min. Then a 5 mM FeCl2 stock solution was added and mixed quickly to get a final FeCl2 concentration of 0.05 mM., followed by continuous monitoring of UV absorbance at 330 nm over 10 min. Oxidation was rapid and complete within ˜1 minute.

In the case of `CC(C)(C)OC(=O)NCCOCCOCCOCCOCCOCCOCCOCCOCCOCCOCCOCCNC(=O)CCCC(=O)Nc1ccc(C2=NNC(c3ccccn3)=NN2)nc1` [N′-Boc PEG10 dipyridyl-dihydrotetrazine], the “time to complete oxidation” value is reported as about 1 min.
